Test results published in US20230257390A1, “COMPOUNDS WHICH INHIBIT RNA POLYMERASE AND THEIR USE” (The Johns Hopkins University, priority 2020, published 2023).
Where a name gives a salt, the structure may show the parent alone.

Assays:
[1] = test system: tumor burden; conditions: mouse xenograft assays; cited from earlier work
[2] = test system: NCI60 cancer cell lines; conditions: cited from earlier work
[3] = test system: RPA194; experiment: RPA194 immunofluorescence high-content imaging in A375 cells (Pol I inhibition); format: cell-based; conditions: treated for 4 hours, top concentration 10 μM
Method: Cell culture: A375 cells (CRL-1619, ATCC) were grown in DMEM (GIBCO) supplemented with 10% fetal bovine serum (GIBCO) in 5% CO2 at 37° C.
Cell treatment and Imaging: 18 hours post-seeding in cell carrier black 384-well plates (PerkinElmer) at 15 000 cells/well, A375 cells were treated for 4 hours with a positive control or test compounds (9 serial semi-log dilutions, top concentration 10 μM). Upon treatment A375 cells were (i) fixed for 15 min at RT with 4% of paraformaldehyde, (ii) permeabilized for 20 min at RT with 0.1-0.5% of NP-40, (iii) incubated with primary antibodies at 4° C.: anti-RPA194 (1:1000-1:1250 dilution, sc-48385, Santa Cruz Biotechnology) and anti-gH2Ax (1:5000 dilution, 81299, Abcam or 1:4000, JBW302, Millipore) (iv) incubated for 1 h at RT with Hoechst (1:5000 dilution, H3570, ThermoFisher) and secondary antibodies: anti-mouse-AlexaFluor488 (1:2000 dilution, A11001, ThermoFisher) and anti-rabbit-AlexaFluor647 (1:2000 dilution, A21443, ThermoFisher) or goat anti-mouse AlexaFluor-594 (1:1000 dilution). Images were acquired on an Operetta CLS High-Content Analysis System (PerkinElmer) (40× objective; 9 fields/well) and processed using the Columbus Image Analysis System (PerkinElmer) or by using Molecular Devices ImageXpress Micro XLS High Content Imager and MetaXpress high-content acquisition and analysis software.
In the table below, (+) is associated with a pIC50 5.02 to 5.8; (++) with pIC50 5.8 to 6.3; and plus sing (+++) with a pIC50 above 6.3.

SMILES | Activity Range (pIC50) [3] | other results
CN(C)CCNC(=O)c1cccn2c(=O)c3cc4ccccc4cc3nc12 [BMH-21, 12H-Benzo[g]pyrido[2,1-b]quinazoline-4-carboxamide, N-[2(dimethylamino)ethyl]-12-oxo] | – | tumor burden [1]: reduced tumor burden; anticancer activity [2]: anticancer activity
O=C(NCCN1C[C@@H](O)[C@H](O)C1)c1cccn2c(=O)c3cc4c(cc3nc12)OC(F)(F)O4 [Compound 101, N-(2-((3R,4R)-3,4-dihydroxypyrrolidin-1-yl)ethyl)-2,2-difluoro-11-oxo-11H-[1,3]dioxolo[4,5-g]pyrido[2,1-b]quinazoline-6-carboxamide] | + ((+) is associated with a pIC50 5.02 to 5.8) | –
O=C(NCCN1CCC(O)C1)c1cccn2c(=O)c3cc4c(cc3nc12)OC(F)(F)O4 (centres unmarked) [Compound 102, 2,2-difluoro-N-(2-(3-hydroxypyrrolidin-1-yl)ethyl)-11-oxo-11H-[1,3]dioxolo[4,5-g]pyrido[2,1-b]quinazoline-6-carboxamide; hydrochloride] | + ((+) is associated with a pIC50 5.02 to 5.8) | –
O=C1CCN(CCNC(=O)c2cccn3c(=O)c4cc5c(cc4nc23)OC(F)(F)O5)CC1 [Compound 103, 2,2-difluoro-11-oxo-N-(2-(4-oxopiperidin-1-yl)ethyl)-11H-[1,3]dioxolo[4,5-g]pyrido[2,1-b]quinazoline-6-carboxamide] | ++ ((++) with pIC50 5.8 to 6.3) | –
CN(C)CCNC(=O)c1cccn2c(=O)c3cc4c(cc3nc12)OC(F)(F)O4 [Compound 104, N-(2-(dimethylamino)ethyl)-2,2-difluoro-11-oxo-11H-[1,3]dioxolo[4,5-g]pyrido[2,1-b]quinazoline-6-carboxamide; hydrochloride] | + ((+) is associated with a pIC50 5.02 to 5.8) | –
O=C(NCCN1CCC(O)CC1)c1cccn2c(=O)c3cc4c(cc3nc12)OC(F)(F)O4 [Compound 105, 2,2-difluoro-N-(2-(4-hydroxypiperidin-1-yl)ethyl)-11-oxo-11H-[1,3]dioxolo[4,5-g]pyrido[2,1-b]quinazoline-6-carboxamide; hydrochloride] | ++ ((++) with pIC50 5.8 to 6.3) | –
CN(C)C(C)(C)CNC(=O)c1cccn2c(=O)c3cc4c(cc3nc12)OC(F)(F)O4 [Compound 106, N-(2-(dimethylamino)-2-methylpropyl)-2,2-difluoro-11-oxo-11H-[1,3]dioxolo[4,5-g]pyrido[2,1-b]quinazoline-6-carboxamide; hydrochloride] | + ((+) is associated with a pIC50 5.02 to 5.8) | –
O=C(NCCN1CCCC1)c1cccn2c(=O)c3cc4c(cc3nc12)OC(F)(F)O4 [Compound 107, 2,2-difluoro-11-oxo-N-(2-(pyrrolidin-1-yl)ethyl)-11H-[1,3]dioxolo[4,5-2]pyrido[2,1-b]quinazoline-6-carboxamide; hydrochloride] | +++ ((+++) with a pIC50 above 6.3) | –
O=C(NCCN1CCCC1)c1cccn2c(=O)c3cc4c(cc3nc12)OCO4 [Compound 108, 11-oxo-N-(2-(pyrrolidin-1-yl)ethyl)-11H-[1,3]dioxolo[4,5-g]pyrido[2,1-b]quinazoline-6-carboxamide; hydrochloride] | ++ ((++) with pIC50 5.8 to 6.3) | –
Cc1cc2nc3c(C(=O)NCCN(C)C)cccn3c(=O)c2cc1C [Compound 109, N-(2-(dimethylamino)ethyl)-2,3-dimethyl-11-oxo-11H-pyrido[2,1-b]quinazoline-6-carboxamide; hydrochloride] | ++ ((++) with pIC50 5.8 to 6.3) | –
Cc1cc2nc3c(C(=O)NCCN4CCCC4)cccn3c(=O)c2cc1C [Compound 110, 2,3-dimethyl-11-oxo-N-(2-(pyrrolidin-1-yl)ethyl)-11H-pyrido[2,1-b]quinazoline-6-carboxamide; hydrochloride] | ++ ((++) with pIC50 5.8 to 6.3) | –
CN(C)CCNC(=O)c1cccn2c(=O)c3cc4c(cc3nc12)CCCC4 [Compound 111, N-(2-(dimethylamino)ethyl)-12-oxo-7,9,10,12-tetrahydro-8H-benzo[g]pyrido[2,1-b]quinazoline-4-carboxamide; hydrochloride] | + ((+) is associated with a pIC50 5.02 to 5.8) | –
O=C(NCCN1CCCC1)c1cccn2c(=O)c3cc4c(cc3nc12)CCCC4 [Compound 112, 12-oxo-N-(2-(pyrrolidin-1-yl)ethyl)-7,9,10,12-tetrahydro-8H-benzo[g]pyrido[2,1-b]quinazoline-4-carboxamide; hydrochloride] | ++ ((++) with pIC50 5.8 to 6.3) | –
O=C(NCCN1CCCC1)c1cccn2c(=O)c3cc4c(cc3nc12)OCCO4 [Compound 113, 12-oxo-N-(2-(pyrrolidin-1-yl)ethyl)-2,3-dihydro-12H-[1,4]dioxino[2,3-2]pyrido[2,1-b]quinazoline-7-carboxamide; hydrochloride] | + ((+) is associated with a pIC50 5.02 to 5.8) | –
CN(C)CCNC(=O)c1cccn2c(=O)c3cc4c(cc3nc12)OCCO4 [Compound 114, N-(2-(dimethylamino)ethyl)-12-oxo-2,3-dihydro-12H-[1,4]dioxino[2,3-g]pyrido[2,1-b]quinazoline-7-carboxamide; hydrochloride] | + ((+) is associated with a pIC50 5.02 to 5.8) | –
Cc1ccc2c(=O)n3cccc(C(=O)NCCN4CC[C@@H](O)C4)c3nc2c1C [Compound 115, (R)-N-(2-(3-hydroxypyrrolidin-1-yl)ethyl)-3,4-dimethyl-11-oxo-11H-pyrido[2,1-b]quinazoline-6-carboxamide; hydrochloride] | +++ ((+++) with a pIC50 above 6.3) | –
Cc1ccc2c(=O)n3cccc(C(=O)NCCN4CCCC4)c3nc2c1 [Compound 116, 3-methyl-11-oxo-N-(2-(pyrrolidin-1-yl)ethyl)-11H-pyrido[2,1-b]quinazoline-6-carboxamide;hydrochloride] | + ((+) is associated with a pIC50 5.02 to 5.8) | –
Cc1cccc2c(=O)n3cccc(C(=O)NCCN4CCCC4)c3nc12 [Compound 117, 4-methyl-11-oxo-N-(2-(Pyrrolidin-1-Yl)ethyl)-11H-pyrido[2,1-b]quinazoline-6-carboxamide;hydrochloride] | ++ ((++) with pIC50 5.8 to 6.3) | –
O=C(NCCN1CCCC1)c1cccn2c(=O)c3cccc(-c4ccccc4)c3nc12 [Compound 118, 11-oxo-4-phenyl-N-(2-(pyrrolidin-1-yl)ethyl)-11H-pyrido[2,1-b]quinazoline-6-carboxamide; hydrochloride] | + ((+) is associated with a pIC50 5.02 to 5.8) | –
O=C(NCCN1CCCC1)c1cccn2c(=O)c3ccc(-c4ccccc4)cc3nc12 [Compound 119, 11-oxo-3-phenyl-N-(2-(pyrrolidin-1-yl)ethyl)-11H-pyrido[2,1-b]quinazoline-6-carboxamide; hydrochloride] | + ((+) is associated with a pIC50 5.02 to 5.8) | –
Cc1ccc2c(=O)n3cccc(C(=O)NCCN4CCCC4)c3nc2c1C [Compound 120, 3,4-dimethyl-11-oxo-N-(2-(pyrrolidin-1-yl)ethyl)-11H-pyrido[2,1-b]quinazoline-6-carboxamide; hydrochloride] | +++ ((+++) with a pIC50 above 6.3) | –
O=C(NCCN1CCCC1)c1cccn2c(=O)c3ccc4c(c3nc12)OC(F)(F)O4 [Compound 121, 2,2-difluoro-6-oxo-N-(2-(pyrrolidin-1-yl)ethyl)-6H-[1,3]dioxolo[4,5-h]pyrido[2,1-b]quinazoline-11-carboxamide;hydrochloride] | + ((+) is associated with a pIC50 5.02 to 5.8) | –
